Data reported in US20030203963A1, “Antimicrobial agent” (priority 2001, published 2003).

Columns and labels:
Cl. tyrobutyricum 2753 = assay: Sensitivity testing for Clostridium species in cooked meat medium; format: cell-based; details: highest level tested 2000 ppm APP20010215, anaerobically at 37° C.
Experimental: Stock solutions of APP215 (0.5, 1 and 2%) were prepared and filter-sterilised. Cooked meat medium (CMM, Oxoid) was prepared by distributing 1 g of the medium to individual test tubes, which were then filled with 8.9 ml water. After autoclaving 100 μl of the APP stock solutions were added, to give final concentrations of 0, 500, […] and 2000 ppm APP. The tests were inoculated with […] of Clostridium spores, to give an inoculum level of ca. 10 cfu/ml. The tubes were overlaid with 3 ml of 2% agar to maintain anaerobicity. The tests were incubated at 37° C., and examined daily for signs of growth (turbidity, gas production).

Salmonella S19 = assay: Chicken soup trial at 8° C.; format: cell-based, Salmonella sp.; details: 500-1000 ppm; chicken soup at 8° C., TCSM010521, APP215
Source text: (§1) A local supermarket brand of cream of chicken soup was used as a model food system. 600 g packs were purchased from the local supermarket. This was a ‘fresh home-made type’ of soup that was stored in the chill cabinet, with a short shelf life. It was chosen because it is a rich, nutritious food system containing a range of food components including meat, dairy and vegetable.
(§2) Ingredients were labelled as: chicken stock (water, duck fat, chicken, salt, flavourings, yeast extracts, pork gelatine, glucose syrup, vegetable concentrate, milk protein, sugar, malto-dextrin, vegetable oil, citric acid, lactose, chicken fat), ilk, chicken (9%), cream (8%), onion, potato, vegetable oil, modified maize starch, wheat flour, lemon juice, salt, white pepper. pH 5.912. Protein: 3.3%; carbohydrate: 4.7%; fat: 7.2%; fibre: 0.2%; sodium: 0.1%
(§3) For the test the soup was mixed 2:1 in water (to facilitate sampling and mixing) and sterilised by autoclaving at 121° C. for 15 minutes. For each experiment the pH of the soup was recorded; this was between pH 5.79-5.88.
For TCS010521/8 (incubated at 8° C.), samples were prepared in 27.8 g quantities. 1.5 g of an APP stock solution was added, and the tests inoculated with 0.3 ml of a suitably diluted cell or spore suspension to give a final inoculum of ca. 10^3 cfu/g. APP was tested at 0, 500 and 1000 ppm, and batch number APP20010213 (at 169 mg/ml) was used. […]

B. cereus 204 [1] = assay: Chicken soup trial at 20° C.; format: cell-based, Bacillus cereus; details: chicken soup at 20° C., TCSM010430, APP20010213
Source text: as §1, §2, §3
For TCS010430/20 (incubated at 20° C.) samples were prepared in 18.8 g quantities, to which 1 g of a suitable filter-sterilised APP stock solution was added and an appropriately diluted 0.2 ml inoculum. Great care was again taken to ensure homogeneous distribution of the APP and micro-organisms. This test was sampled by viable count test on a daily basis.

L. monocytogenes 272 = assay: Test in cooked sausage meat slurry; format: cell-based, Listeria monocytogenes
Source text: 500 g of bologna sausage meat mixture was mixed with 500 g Brain Heart Infusion broth (BHIB) to make a homogeneous slurry. The bologna sausage meat mix comprised (g per kg): lean beef 320; lean pork 202; lard 250; water 40; glucose 5; starch 155; spice mix 3.75; sodium glutamate 0.5; sodium erythorbate 0.545; sodium di-phosphate 3; NaCl 20; sodium nitrite 0.15. 200 g samples of the meat slurry were autoclaved. While the meat was still warm it was re-mixed thoroughly. When the meat had cooled it was inoculated with 2 ml of 10^5 cfu/ml spore or cell suspension, and re-mixed again. Each inoculated meat sample was divided into 3×50 g samples, and 1 ml of either SDW, 2.5% or 5% APP solution (batch number APP 20010215) was added to prepare meat samples containing 0, 500 and 1000 ppm APP. The meat slurry was again shaken thoroughly to ensure even mixing, an initial viable count was taken and the samples incubated at 8° C. Samples were taken at twice-weekly intervals. The pH of the sausage meat slurry was 6.2.

[2] = tested on: Br. thermosphacta CRA78883; assay: Test in cooked minced beef slurry; format: cell-based, Brochothrix thermosphacta; details: 2000 ppm; minced beef slurry at 8° C., pH 6.24, TCM010619
Experimental: (§4) 1 kg of minced beef, purchased from the local butcher, was mixed with 1 litre of BHI. 200 g portion of this meat slurry was autoclaved. When the meat had cooled, the pH was recorded (pH 6.24), and each pot was inoculated with 2.0 ml of 10^5 spores or cells and the meat re-mixed thoroughly. Each inoculated 200 g pot was distributed as 3×50 g portions. To each pot 1 ml of SDW, 5% or 10% APP (Batch No. APP20010215) was added, and the meat was again mixed thoroughly. An initial viable count was performed, the meat was incubated at 8° C. and sampled twice weekly. The pH of the cooked minced beef slurry was 6.24.

Lb. sake A10 = assay: Test in cooked minced beef slurry; format: cell-based, Lactobacillus sake
Experimental: as §4

B. cereus 204 [3] = assay: Test in cooked minced chicken slurry; format: cell-based, Bacillus cereus; details: 2000 ppm; minced chicken slurry at 8° C., pH 6.42, TCC010704
Experimental: 1 kg of minced chicken (mainly lean meat) was purchased from the local butcher. This was mixed with 1 litre of BHI, mixed and dispensed as 100 g samples prior to autoclaving. When still warm, the meat was re-mixed thoroughly. When cooked, the meat was inoculated with 1 ml of 10^5 spores or cells (from an overnight broth), and re-mixed. The samples were then divided into 3×25 g portions, to which 0.5 ml of filter-sterilised APP20010215 was added (as 5% or 10% stock solutions) or water. An initial viable count was taken, and the samples then incubated at 8° C. and tested twice weekly. The pH of the chicken slurry was 6.42.

Ps. fluorescens = assay: Chicken soup at 8° C. (summary); format: cell-based, Pseudomonas fluorescens; details: Chicken soup at 8° C. pH 5.8
Source text: as §1, §2, §3
For TCS010412/8 (which was incubated at 8° C.), APP batch number APP20010213 (concentration 169 mg APP/ml) was used to prepare tests containing 0, 2000 or 4000 ppm APP. […]
For TCS010521/8 (incubated at 8° C.), samples were prepared in 27.8 g quantities. […]

Compound: O=C1CC(CO)OC=C1O (stereo not shown) [APP, Ascopyrone P]
- Growth inhibition (Cl. tyrobutyricum 2753): No growth inhibition
- Total inhibition for (Salmonella S19): Total inhibition by 500-1000 ppm for 22 d
- Effect on growth (B. cereus 204 [1]; 500 ppm): No significant effect with 500 ppm
- Effect on growth (B. cereus 204 [1]; 1000 ppm): Extension of lag with 1000 ppm
- Total inhibition for (B. cereus 204 [1]; 2000 ppm): Total inhibition by 2000 ppm for >42 days.
- 10^6 reached at (L. monocytogenes 272; 1000 ppm, cooked sausage meat slurry at 8° C., TSM010605, controls 7 d): 7 d
- Effect on growth (L. monocytogenes 272; 1000 ppm, cooked sausage meat slurry at 8° C., pH 6.2, TSM010605): No total inhibition
- Partial inhibition (effect on growth of target organism by APP) (L. monocytogenes 272; Cooked sausage meat slurry at 8° C. pH 6.2, (1000)): L. monocytog.
- Effect on growth [2]: No effect with 2000 ppm
- Effect on growth (Lb. sake A10; 2000 ppm, minced beef slurry at 8° C., pH 6.24, TCM010619): No effect with 2000 ppm
- No inhibition (effect on growth of target organism by 2000 ppm APP) (Lb. sake A10; Cooked minced beef slurry at 8° C. pH 6.24): Lb. sake
- Effect on growth (B. cereus 204 [3]): Partial inhibition by 2000 ppm
- Total inhibition (effect on growth of target organism by 2000 ppm APP) (Ps. fluorescens): Ps. fluorescens
